Results published in article PMC5845537 (Frontiers in Pharmacology, 2018).

Legend:
C57BL/6NCrlBr mice [1] = experiment: Mouse object recognition (OR) task after subchronic PCP; type: in vivo
Procedure: (§1) Subchronic PCP treatment: The subPCP administration regimen used in rats was conducted as described in ([Goetghebeur and Dias, 2009]), which is a reliable method for inducing deficits in our hands. Rats in the subPCP experiments received injections of 5 mg/mL PCP or vehicle (saline) s.c. at a 1 mL/kg injection volume twice per day for 7 days. […] The mouse subPCP regimen was conducted as described in [Pedersen et al. (2014)]. Briefly, mice received vehicle or PCP (1.3 mg/mL concentration, 10 mL/kg injection volume) s.c once per day for 14 days followed by a 7-day washout prior to experimentation.
(§2) Object placement and OR tasks in mice were executed in Perspex boxes measuring 40 × 40 cm with dark gray walls and a white floor. The tests were conducted during the light phase, yet in a subdued light (≈20 lux) and with the radio turned on in the background. Each trial was recorder by a camera mounted above the test arenas and later scored manually.
(§3) Objects in the mouse OP task consisted of small stork sculptures made of plaster, which were 11.5 cm in height, with a roughly rectangle-shaped base 7.5 cm in length and 4.8 cm in width. For the mouse OR task, objects consisted of (1) small cylindrical pepper mills (purchased empty, having never contained spice) made of clear plastic (10.5 cm in height, 4.5 cm diameter), and (2) small salt shakers made of light blue glass (again, purchased empty; 11.5 cm in height, 4.5 cm diameter). […]
(§4) The primary dependent measure for the OR and object placement tasks was a novel object or novel placement preference score, which were calculated from raw object investigation times using the following equation: Preference Score = ITN/(ITN + ITF)^∗100, where ITN represents the investigation time for the novel object or placement, and ITF represents the investigation for the familiar object or placement. Total exploration times from the information and test trials were analyzed for OP and OR experiments. Preference score and total exploration time data was analyzed for treatment group differences using a one-way between-subjects ANOVA. […]

C57BL/6NCrlBr mice [2] = experiment: Mouse object placement (OP) task after subchronic PCP; type: in vivo
Procedure: as §1, §2, §3, §4

SMILES | novel object preference score (C57BL/6NCrlBr mice [1]; subPCP/veh vs control mice, PCP 13 mg/kg s.c. once per day 14 days, 7-day washout, p < 0.001) | novel placement preference score (C57BL/6NCrlBr mice [2]; subPCP/vehicle vs vehicle/vehicle mice, p < 0.01) | novel object preference score, vehicle/vortioxetine vs vehicle/vehicle (C57BL/6NCrlBr mice [1]; mice without PCP, 10 mg/kg s.c. bolus then 0.6 g/kg chow) | novel object preference score vs subPCP/vehicle (C57BL/6NCrlBr mice [1]; subPCP/vortioxetine mice, 10 mg/kg s.c. bolus then 0.6 g/kg chow, p < 0.01) | attenuation of subPCP-induced object placement task impairment (C57BL/6NCrlBr mice [2]; subPCP-treated mice, 10 mg/kg s.c. bolus plus seven days 0.6 g/kg chow, p < 0.05) | object placement task performance vs vehicle/vehicle (C57BL/6NCrlBr mice [2]; vortioxetine/vehicle group, mice without PCP)
Cl.c1ccc(C2(N3CCCCC3)CCCCC2)cc1 [PCP, 1-(1-phenylcyclohexyl)-piperidine hydrochloride] | significantly lower novel object preference scores | significantly reduced novel placement preference scores | – | – | – | –
Cc1ccc(Sc2ccccc2N2CCNCC2)c(C)c1 [vortioxetine] | – | – | no statistically significant difference | significantly higher novel object preference scores | significantly attenuated | did not perform significantly better
